Measurements published in patent publication US7943296B2, “Methods of screening using a natriuretic peptide receptor” (Oregon Health & Science University, priority 2005, dated 2011).

Assays:
[1] = system: NPRA; test: [35S]ATPγS incorporation into NPRA (receptor phosphorylation) in CFs; assay type: cell-based, rat; conditions: ANP 5 minutes, KT5823 1 μM or expressed fragment
Experimental: To identify receptor phosphorylation by PKG, ^[35S]ATPγS was employed as a substrate. [^35S] incorporation into NPRA was analyzed according to the method previously described (Joubert et al., Biochem. 40:11096-105, 2001). Briefly, the treated CFs were scraped into 100 μl ice-cold incubation buffer (25 mM HEPES, pH 7.4, 50 mM NaCl, 5 mM MgCl2, 0.2 μM okadaic acid, 1 mM Na3VO4, 10 mM NaH2PO4, 10 mM NaF, and protease inhibitors (complete mini-tablet, Roche) and lysed by repeated passage through a 22-gauge needle. Lysates were added to incubation buffer containing 1 μCi [^35S]ATPγS (specific activity >1000 Ci/mmol), final volume of 200 μl, incubated at 37° C. for 30 minutes. Proteins were analyzed by SDS-PAGE (7.5%) and subsequent autoradiography.

[2] = system: NPRA; test: [35S]ATPγS NPRA phosphorylation in HEK293 / HEK-NPRA cells; assay type: cell-based; conditions: HEK293 that overexpress NPRA
Experimental: To ensure that the 137-kD phosphorylation band observed in the CFs after ANP treatment was, in fact, NPRA, HEK293 or HEK-NPRA were treated with ANP with or without KT5823 as described above. The lysates were divided into two aliquots. One aliquot was incubated with [^35S] ATPγS and then separated by SDS-PAGE, blotted to Immobilon membranes, and visualized by autoradiography. The other aliquot was separated similarly and then probed with anti-NPRA antisera, stripped and re-probed with anti-α-tubulin to assure equal protein loading. Robust phosphorylation of a 137-kD protein occurred in the NPRA-expressing cells, but not in control cells (FIG. 6B). Since both KT5823 and sNRF^(806-1061) inhibit cytosolic-to-plasma membrane translocation of PKG, PKG-NPRA association appears to be required for PKG-induced NPRA phosphorylation.

[3] = molecular target: T1, PKG (Homo sapiens, UniProt Q13976); conditions: earlier observation, Airhart et al. 2003; cited from earlier work
T1 construct: endogenous in cells; host or cells: HEK293 stably over-expressing FLAG-NPRA (HEK-NPRA)
T1 sequence (Q13976 1-671): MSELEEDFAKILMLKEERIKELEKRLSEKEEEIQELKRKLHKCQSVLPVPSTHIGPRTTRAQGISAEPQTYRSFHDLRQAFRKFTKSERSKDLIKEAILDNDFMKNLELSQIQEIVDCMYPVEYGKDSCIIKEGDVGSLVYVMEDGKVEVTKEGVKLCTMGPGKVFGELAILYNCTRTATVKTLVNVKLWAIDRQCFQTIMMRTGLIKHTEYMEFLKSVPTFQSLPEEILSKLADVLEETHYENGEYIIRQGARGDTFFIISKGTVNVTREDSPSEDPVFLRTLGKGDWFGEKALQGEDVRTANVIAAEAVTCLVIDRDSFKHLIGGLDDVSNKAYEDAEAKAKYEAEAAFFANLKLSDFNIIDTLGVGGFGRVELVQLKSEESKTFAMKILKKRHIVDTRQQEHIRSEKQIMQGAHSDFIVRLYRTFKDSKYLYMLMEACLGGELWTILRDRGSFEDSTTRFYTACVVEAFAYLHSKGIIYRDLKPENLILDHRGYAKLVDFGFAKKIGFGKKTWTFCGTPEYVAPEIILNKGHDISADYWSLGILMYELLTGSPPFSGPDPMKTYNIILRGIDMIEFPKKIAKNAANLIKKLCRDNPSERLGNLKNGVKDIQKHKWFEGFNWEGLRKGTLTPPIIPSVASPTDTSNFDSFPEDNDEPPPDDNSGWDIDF

COC(=O)[C@@]1(OC)C[C@H]2O[C@]1(C)n1c3ccccc3c3c4c(c5c6ccccc6n2c5c31)C(=O)N(C)C4 [KT5823]
ANP-induced NPRA phosphorylation [1]: reduced ANP-induced NPRA phosphorylation to control levels | NP-dependent phosphorylation of NPRA [2]: inhibited | PKG translocation [3]: inhibits PKG translocation
